The text below walks through data of US9415063B2, “Treatment of neurological disorders” (VELACOR THERAPEUTICS PTY LTD., priority 2007, dated 2016).

For data set [1], the system named is cultured rat hippocampal slices (CA1 region). The data set is described as follows: Hypoxia induced neurodegeneration in organotypic hippocampal slice cultures. The data set is classed as cell-based, Wistar rat. As to conditions: 100 μM; compound present 24 hours pre-, during 3 hours of and 24 hours post-hypoxia; vs hypoxia alone. The method, then: (§1) Wistar rat pups (8-11 days old) were decapitated and the hippocampus rapidly dissected into ice-cold Gey's balanced salt solution supplemented with 4.5 mg/mL glucose. Transverse sections (400 μm) were cut on a McIlwain tissue chopper and placed back into ice-cold Gey's balanced salt solution. Slices were separated and plated onto Millicell CM culture inserts (4 per well) and maintained at 37° C./5% CO2 for 14 days. Maintenance medium consists of 25% heat-inactivated horse serum, 25% Hank's balanced salt solution (HBSS) and 50% minimum essential medium with added Earle's salts (MEM), supplemented with 1 mM glutamine and 4.5 mg/mL glucose. Medium was changed every 3-4 days.
PI fluorescence was detected using a Leica DMIL inverted microscope fitted with a rhodamine filter set. […]
Neuronal damage was assessed using ImageJ software running on a PC. […] Light transmission images were captured prior to the addition of drugs, and PI fluorescence images recorded at the end of the 24-hour recovery period. The area of the CA1 region was then determined from the transmission image. The area of PI fluorescence in the CA1 is measured using the threshold function on ImageJ, and neuronal damage expressed as the percentage of the CA1 in which PI fluorescence is detected above background (Pringle et al., 1997).

For data set [2] the test system is unchanged. Nature of the data set: Ischaemia (oxygen glucose deprivation) induced neurodegeneration in organotypic hippocampal slice cultures. The class given is cell-based, Wistar rat. Here is the method:
as §1
(§2) Neuronal damage was assessed using ImageJ software running on a PC. Images being captured using a monochrome CCD camera and saved for offline analysis. Light transmission images were captured prior to the addition of drugs, and PI fluorescence images recorded at the end of the 24-hour recovery period. The area of the CA1 region was then determined from the transmission image. The area of PI fluorescence in the CA1 is measured using the threshold function on ImageJ, and neuronal damage expressed as the percentage of the CA1 in which PI fluorescence is detected above background (Pringle et al., 1997).
(§3) In this case the sodium selenate was made to 50 mM in SFM, then serially diluted to 25 mM, 10 mM and 1 mM, each of these used at 10 μL/mL to give final concentrations of 10 μM, 100 μM, 250 μM and 500 μM. Sodium selenite and selenomethionine as before. An experiment to assess the toxicity of sodium selenate at these higher concentrations was run in parallel with the OGD (Results FIG. 4).

Data set [3] concerns cultured rat hippocampal slices. Nature of the data set: Tissue culture toxicity screen in organotypic hippocampal slice cultures. Here is the method:
as §1, §2
A preliminary toxicity screen was carried out on the compounds to determine tissue culture exposure levels that would cause toxicity. […] Damage was measured after 24 hours and 48 hours.
as §3

Another data set has as its system PTZ induced seizures. To be noted: for Number of seizures: 30 minutes observation; for Number of seizures / Duration of seizure activity / Number of severe seizures / Latency to seizure onset: mean±SEM; for Latency to seizure onset: not significant vs vehicle. Here is the method:
All animal experiments were carried out according to the National Institute of Health (NIH) guidelines for the care and use of laboratory animals, and approved by the Ethical Committee of the National Laboratory Animal Center, Kuopio, Finland. Altogether 30 adult male Sprague-Dawley rats (Taconic, Denmark) weighing 200-240 g were used. Animals were housed at a standard temperature (22±1° C.) and in a light-controlled environment (lights on from 7 am to 8 pm) with ad libitum access to food and water.
Animals were grouped as follows: • 10 rats treated with vehicle (sterile water as drinking water). • 10 rats treated with sodium selenate anhydrous (120 microgram in 100 mL sterile water), p.o in drinking water for 7 days prior to PTZ injection. • 10 rats treated with sodium selenate anhydrous (1.2 milligram in 100 mL sterile water), p.o in drinking water for 7 days prior to PTZ injection. PTZ Induced Seizures
Pentylenetetrazol (PTZ) (60 mg/kg) is administered intraperitoneally (i.p., 2 mL/kg in saline) to male Sprague-Dawley rats.
Sodium selenate is administered p.o in drinking water for 7 days prior to PTZ injection. The rats have ad libitum access to water (normal daily consumption of water is 30 mL/rat/day).
The incidence of seizures (seizure and severe seizure), the latency for the first seizure appearance and the duration of seizure activity were used as indices of anticonvulsant effect. Seizure numbers were not counted if the animal died. […] Animals that died were assigned the maximum seizure duration of 30 minutes. […] Severe seizure was defined as a prolonged seizure involving stretching and twisting convulsions.
Values are presented as percentages and differences are considered to be statistically significant at the P<0.05 level. Statistical analysis was performed using StatsDirect software. Differences among groups were analyzed by 1-way-ANOVA followed by Dunnet's test (comparison to the control (=vehicle treated PTZ rats) group).

The mark [4] stands for this setting: 100 μM, compound present 24 hours pre-, during 1 hour of and 24 hours post-ischaemia, vs OGD alone.
The mark [5] stands for this setting: 120 μg in 100 mL drinking water p.o. 7 days prior to PTZ.
Where [6] appears, read: 1.2 mg in 100 mL drinking water p.o. 7 days prior to PTZ.

Like-named read-outs stand apart in the source and are kept apart here.

Regarding `O=C(O)c1ccc(C2=C3C=CC(=N3)C(c3ccc(C(=O)O)cc3)=c3ccc([nH]3)=C(c3ccc(C(=O)O)cc3)c3ccc([n-]3)C(c3ccc(C(=O)O)cc3)c3ccc2[n-]3)cc1.[Cl-].[Mn+3]` (stereo not drawn) [MnTBAP, Mn(III)tetrakis(4-benzoic acid)porphyrin chloride, reference compound], the “Neuronal damage (PI fluorescence in CA1) after hypoxia” value in data set [1] is “prevented”. Further, the “Neuronal damage (PI fluorescence in CA1) after OGD ischaemia” value (“Neuronal damage … after OGD ischaemia” below) in data set [2] (setting [4]) was “prevented”.
Consider `O=[Se](O)O` [Sodium selenite, reference compound], for which the “Concentration above which compound was toxic in tissue culture” value in data set [3] (serum free media, tested at 5 μM, 25 μM and 100 μM, damage measured after 24 hours and 48 hours) was “above 5 μM”.
Consider `O=[Se](=O)(O)O` [sodium selenate], for which, in the data set with PTZ induced seizures (setting [5]), the Number of seizures was determined as 8.5±2.1, the “Duration of seizure activity” value turned out to be 770.9 ± 189.9 s, the “Number of severe seizures” value came to 0.8±0.1 and the “Latency to seizure onset” value was 217.6 ± 117.6 s. This compound showed a Mortality with PTZ induced seizures (120 μg in 100 mL drinking water p.o. for 7 days prior to PTZ 60 mg/kg i.p., 10 rats) of 1 animal. In the data set on PTZ induced seizures (setting [6]), the Number of seizures was determined as 9.9±2.2, the “Duration of seizure activity” value worked out at 808.6 ± 126.1 s, the “Number of severe seizures” value was 0.9±0.1 and the “Latency to seizure onset” value came to 107.6 ± 26.9 s. The “Neuronal damage (PI fluorescence in CA1) after hypoxia” value in data set [1] is recorded as “Significant attenuation of damage”. Further, the “Neuronal damage … after OGD ischaemia” value in data set [2] (setting [4]) is “Significant attenuation of damage”. Also, the “Neuronal damage … after OGD ischaemia” value in data set [2] (250 μM, pre, during and post-ischaemia, vs OGD alone) is on record as “Significant attenuation of damage”. Besides, in data set [2] (500 μM, pre, during and post-ischaemia), the “Neuronal damage … after OGD ischaemia” value is “significant increase in toxicity”. Besides, the “Toxicity in tissue culture in the absence of hypoxia” value in data set [3] (500 μM, run in parallel with the OGD experiment (FIG. 4)) was “neurotoxicity”. The Tissue culture toxicity entry in data set [3] (serum free media, any concentration tested up to 100 μM, 24 hours and 48 hours) is listed as “not found to be toxic”.
